Data as given in PubChem BioAssay (NCI).
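Compound exposure: 48 hours, 5 concentrations, 96-well plates. The concentration for 50% growth inhibition is given as GI50. TGI marks complete inhibition of growth.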

Experiments:
Test in all cases: growth of human tumour cells (NCI), 48 h
[1] = tested on: NCI-H23 lung
[2] = tested on: NCI-H460 lung
[3] = tested on: NCI-H522 lung
[4] = tested on: NCI/ADR-RES ovarian
[5] = tested on: OVCAR-3 ovarian
[6] = tested on: OVCAR-4 ovarian
[7] = tested on: OVCAR-5 ovarian
[8] = tested on: OVCAR-8 ovarian
[9] = tested on: PC-3 prostate
[10] = tested on: RPMI-8226 leukemia
[11] = tested on: RXF 393 renal
[12] = tested on: SF-268 CNS
[13] = tested on: SF-295 CNS
[14] = tested on: SF-539 CNS
[15] = tested on: SK-MEL-2 melanoma
[16] = tested on: SK-MEL-28 melanoma
[17] = tested on: SK-MEL-5 melanoma
[18] = tested on: SK-OV-3 ovarian
[19] = tested on: SN12C renal
[20] = tested on: SNB-19 CNS
[21] = tested on: SNB-75 CNS
[22] = tested on: SR leukemia
[23] = tested on: SW-620 colon
[24] = tested on: T-47D breast
[25] = tested on: TK-10 renal
[26] = tested on: U251 CNS
[27] = tested on: UACC-257 melanoma
[28] = tested on: UACC-62 melanoma
[29] = tested on: UO-31 renal

SMILES: Cc1ccc(NC(=O)Cn2c(Br)nc3c2c(=O)n(C)c(=O)n3C)cc1
- GI50 [1]: 6.31 µM
- TGI [1]: 22 µM
- GI50 [2]: 3.39 µM
- TGI [2]: 11.6 µM
- GI50 [3]: 9.27 µM
- TGI [3]: 36.3 µM
- GI50 [4]: 9.75 µM
- TGI [4]: 29.3 µM
- GI50 [5]: 2.31 µM
- TGI [5]: 5.35 µM
- GI50 [6]: 2.1 µM
- TGI [6]: 4.57 µM
- GI50 [7]: 3.69 µM
- TGI [7]: 13.9 µM
- GI50 [8]: 4.89 µM
- TGI [8]: 21.6 µM
- GI50 [9]: 11.5 µM
- TGI [9]: 24.1 µM
- GI50 [10]: 3.25 µM
- TGI [10]: 19.4 µM
- GI50 [11]: 2.29 µM
- TGI [11]: 6.28 µM
- GI50 [12]: 8.3 µM
- TGI [12]: 22.8 µM
- GI50 [13]: 9.84 µM
- TGI [13]: 21.8 µM
- GI50 [14]: 1.94 µM
- TGI [14]: 4.21 µM
- GI50 [15]: 13.4 µM
- TGI [15]: 27.4 µM
- GI50 [16]: 11.4 µM
- TGI [16]: 23.5 µM
- GI50 [17]: 2.31 µM
- TGI [17]: 5.57 µM
- GI50 [18]: 2.15 µM
- TGI [18]: 4.52 µM
- GI50 [19]: 3.16 µM
- TGI [19]: 10.8 µM
- GI50 [20]: 7.92 µM
- TGI [20]: 23.7 µM
- GI50 [21]: 1.43 µM
- TGI [21]: 3.95 µM
- GI50 [22]: 8.96 µM
- TGI [22]: 35.5 µM
- GI50 [23]: 13.5 µM
- TGI [23]: 33.2 µM
- GI50 [24]: 3.05 µM
- TGI [24]: 14 µM
- GI50 [25]: 3.2 µM
- TGI [25]: 9.93 µM
- GI50 [26]: 2.26 µM
- TGI [26]: 5.75 µM
- GI50 [27]: 13.9 µM
- TGI [27]: 28.8 µM
- GI50 [28]: 11.1 µM
- TGI [28]: 24.2 µM
- GI50 [29]: 2.13 µM
- TGI [29]: 6 µM
